Data set [1] deals with human gastrointestinal epithelial cell line (CaCo). In words: Cellular uptake of glutamine in CaCo cells (HPLC detection at 340 nm). The class given is in vitro ADME. How it is done:
Distilled, deionized water (107 ml) was added to 207 grams of a dry mixture of sucrose, sorbitol, and glutamine with excipients (Aesgen-14) as listed in Table 1.
Both samples were allowed to stand for 1 day at room temperature. The supernatant was decanted from the residue and used for the cellular uptake determination.
On Day 1, cells from a human gastrointestinal epithelial cell line (CaCo) were plated at a density of 0.5×10^6 cells per well in a 6-well tissue culture dish.
At time points 0, 10, 20, 40, and 60 seconds, the test material was aspirated and the cells washed three times (3×) with chilled (4EC) phosphate buffered saline (PBS), followed by the addition of 1.0 ml of perchloric acid. Cells were harvested by scraping, then aspirated by pipet into a 1.7 ml tube.
The harvested cells were sonicated for 10 seconds, and 500:1 of sonicated cells were transferred into a 1.7 ml tube. The perchloric acid was neutralized by the addition of 130:1 of 2M KHCO3, and the resulting mixture was frozen overnight at −80EC.
Upon thawing, the sample was centrifuged for 10 minutes at 14,000 rpm and the supernatants were transferred to new 1.7 ml tubes and frozen at −80EC. The resulting clarified samples were thawed and diluted 1:3 with deionized water. Fifty microliters were withdrawn, added to 10 microliters complete o-phthaldialdehyde (Sigma P-0532), and mixed by agitation. After incubation for two minutes at room temperature, a 20:1 sample was injected on a Hypersil® C18 Elite 5:m HPLC column using 70:30 acetonitrile:water as the mobile phase. Glutamine levels, measured as :g/ml, were detected at 340 nm.

Data set [2] deals with radiation injury to normal breast tissue in BCT patients. In words: Phase III pilot study: oral AES-14 vs placebo for radiation injury to the breast in BCT patients. In kind it is in vivo, human. To be noted: at 2 year follow-up. How it is done:
This theory was tested in two parts. […] A Phase III pilot study in which 17 patients were randomized to oral AES-14 (30 gm GLN/day, approximately 0.5 gm GLN/kg/day) or placebo from one week prior until one week after radiation therapy (5,000 cGy) was performed. Patients were followed weekly for 7 weeks and every 3 months for 2 years for acute and chronic radiation injury using the RTOG scales, skin biopsy at 0 and 7 weeks, GLN and GSH levels, US, mammogram density, lymphedema, quality of life and performance status.
The RTOG acute radiation morbidity scoring criteria for skin ranges from 0 (no change) to 4 (necrosis). A score of 2 (moist desquamation) was considered failure of treatment. Patients receiving oral AES-14 scored an average of 0.9±0.2, SEM compared to 1.4±0.2 in the placebo group. All patients in the placebo group reached a score of 2 or greater during the first 7 weeks. Two of 8 placebo patients required radiation therapy delay. […] Only 4 of 9 patients in the AES-14 group scored a high of 2, none a 3 (p=0.03 AES-14 vs. placebo, Fisher Exact). At 12 months, 4 of 8 patients in the placebo group complained of pain for which 3 required narcotics, 6 of 8 had significant edema, and 4 of 8 marked increased density and firmness of the radiated breast. […]

The subject of another data set is 9.29 kDa protein. In words: SELDI-MS of serum proteins in breast cancer patients on radiation therapy and oral glutamine (AES-14). The class given is in vivo, human. The source says:
Sixteen breast cancer patients treated with radiation therapy were randomized to receive oral supplemental glutamine (AES-14) or a placebo. Ten of the sixteen women received AES-14 (30 g glutamine per day, approximately 0.5 g glutamine/kg/day) from one week prior to initiating radiation therapy (5,000 cGy) until one week after completing radiation therapy. Six patients received placebo. Serum was collected from each patient before beginning glutamine supplementation (Baseline), at two and four weeks after initiating glutamine supplementation, and one week after stopping glutamine supplementation (Post Treatment in FIG. 1).
Serum proteins from each sample were analyzed by SELDI-MS. Briefly, serum proteins were adhered to the solid substrate of a SELDI chip. The proteins were then desorbed by surface enhanced laser desorption in a SELDI-MS apparatus, and analyzed by mass spectrometry.
SELDI-MS was performed using a Ciphergen (Freemont, Calif.) SELDI PDSII instrument. […] The mass:charge ratio (m/z) of each protein was determined according to a variety of externally calibrated peptide and protein standards. […]
The SELDI-MS procedure analyzed proteins over the m/z ratio ranges of 2-20 and 20-100 kDa.

Turning to `NC(=O)CC[C@H](N)C(=O)O` [L-glutamine], the “mean cellular glutamine uptake” value in data set [1] (normal cells, incubation time 0 seconds) was 3.53 :g/ml; in data set [1] (normal cells, incubation time 10 seconds), 10.30 :g/ml; in data set [1] (normal cells, incubation time 20 seconds), 2.48 :g/ml; in data set [1] (normal cells, incubation time 40 seconds), 3.23 :g/ml; in data set [1] (normal cells, incubation time 60 seconds), 4.85 :g/ml; in data set [1] (starved cells (L-glutamine deficient medium), incubation time 0 seconds), 1.33 :g/ml. The “mean cellular glutamine uptake” value in data set [1] (starved cells (L-glutamine deficient medium), incubation time 10 seconds) is on record as 1.43 :g/ml; in data set [1] (starved cells (L-glutamine deficient medium), incubation time 20 seconds), 1.49 :g/ml; in data set [1] (starved cells (L-glutamine deficient medium), incubation time 40 seconds), 2.23 :g/ml; in data set [1] (starved cells (L-glutamine deficient medium), incubation time 60 seconds), 49.96 :g/ml. Moreover, the “patients with local recurrence” value in data set [2] is “none”. Moreover, the “increase in amount of the 9.29 kDa protein” value in the data set with 9.29 kDa protein (first two weeks of glutamine supplementation and radiation therapy) is “approximately 3 fold”. In addition, the “amount of the 9.29 kDa protein after discontinuation” value with 9.29 kDa protein (within one week following discontinuation of glutamine) is on record as “returned to near the baseline value”.

Values taken from patent US20130029367A1, “COMPOSITIONS AND METHODS FOR MONITORING BREAST CANCER TREATMENT” (Board of Trustees of the University of Arkansas, priority 2003, published 2013).
